Where “and” joins values, the source holds several entries; their conditions need not be identical. Equal entries are not always repeated. Entries after “also recorded” stand apart in the source; their conditions may differ.
Columns and labels:
[1] = system: Mycobacterium tuberculosis (H37Rv); assay: Whole-blood bactericidal activity (WBA) assay, ex vivo, blood of dosed healthy volunteers; format: cell-based; conditions: for WBAcum(0–8) / WBAmax: mean (SD); for bactericidal activity in the WBA assay (in words): drug alone, single oral dose, over 8 hours post-dose
clinical = conditions: human, in vivo, po, 10 mg/kg
[2] = Plasma pharmacokinetics in healthy volunteers (LC-MS/MS, non-compartmental analysis); conditions: for AUC(0-t) / Cmax / Tmax / half-life: human, plasma, po; for AUC(0-t): AUC(0–8); for Tmax: median (min, max); for half-life: mean (SD)
[3] = TB drug + Celecoxib: rifampicin 10 mg/kg with celecoxib 400 mg oral, RIF group, n = 7
[4] = TB drug alone: rifampicin 10 mg/kg single oral dose, RIF group, n = 9
[5] = TB drug alone: rifampicin 10 mg/kg single oral dose, RIF group, n = 9, listed as RIF
[6] = TB drug + Celecoxib: pyrazinamide 25 mg/kg with celecoxib 400 mg oral, PZA group, n = 9
[7] = TB drug alone: pyrazinamide 25 mg/kg single oral dose, PZA group, n = 9
[8] = TB drug alone: pyrazinamide 25 mg/kg single oral dose, PZA group, n = 9, listed as PZA
[9] = 25 mg/kg, pyrazinamide levels in plasma, PZA alone, 25 mg/kg single oral dose, geometric mean (min, max)
[10] = pyrazinamide levels in plasma, PZA + C, pyrazinamide 25 mg/kg with celecoxib 400 mg oral, geometric mean (min, max)
[11] = Celecoxib alone 400 mg single oral dose, PZA group, n = 9
[12] = Celecoxib alone 400 mg single oral dose, RIF group, n = 9
[13] = celecoxib levels in plasma, PZA + C, celecoxib 400 mg with pyrazinamide 25 mg/kg oral, geometric mean (min, max)
[14] = celecoxib levels in plasma, RIF + C, celecoxib 400 mg with rifampicin 10 mg/kg oral, geometric mean (min, max)

CO[C@H]1/C=C/O[C@@]2(C)Oc3c(C)c(O)c4c(O)c(c(/C=N/N5CCN(C)CC5)c(O)c4c3C2=O)NC(=O)/C(C)=C\C=C\[C@H](C)[C@H](O)[C@@H](C)[C@@H](O)[C@@H](C)[C@H](OC(C)=O)[C@@H]1C [Rifampicin, rifampicin]
WBAcum(0–8), mean difference for TB drug with and without celecoxib (95% CI) ([1]; RIF group, paired data n = 7): 0.00 (−0.02, 0.02) ΔlogCFU
WBAmax, mean difference for TB drug with and without celecoxib (95% CI) ([1]; RIF group, paired data n = 7): −0.03 (−0.25, 0.18) ΔlogCFU
WBAcum(0–8) [1, 3]: −0.22 (0.03) ΔlogCFU
WBAmax [1, 3]: −2.51 (0.23) ΔlogCFU
WBAcum(0–8) [1, 4]: −0.22 ± 0.02 ΔlogCFU
WBAmax [1, 4]: −2.48 ± 0.24 ΔlogCFU
WBAcum(0–8) [1, 5]: −0.22 (0.02) ΔlogCFU
WBAmax [1, 5]: −2.48 (0.24) ΔlogCFU
bactericidal activity in the WBA assay (in words) [1]: strong bactericidal activity
AUC(0-t) (clinical; AUC(0–8)): 92.3 µg·h/mL
Cmax (clinical; Cmax): 19.3 µg/mL
Tmax (clinical; Tmax): 1 h

NC(=O)c1cnccn1 [Pyrazinamide, pyrazinamide]
WBAcum(0–8), mean difference for TB drug with and without celecoxib (95% CI) ([1]; PZA group, paired data n = 9): −0.01 (−0.03, 0.00) ΔlogCFU
WBAmax, mean difference for TB drug with and without celecoxib (95% CI) ([1]; PZA group, paired data n = 9): −0.09 (−0.22, 0.04) ΔlogCFU
WBAcum(0–8) [1, 6]: 0.00 (0.01) ΔlogCFU
WBAmax [1, 6]: −0.12 (0.10) ΔlogCFU
WBAcum(0–8) [1, 7]: 0.01 ± 0.03 ΔlogCFU
WBAmax [1, 7]: −0.03 ± 0.23 ΔlogCFU
WBAcum(0–8) [1, 8]: 0.01 (0.03) ΔlogCFU
WBAmax [1, 8]: −0.03 (0.23) ΔlogCFU
bactericidal activity in the WBA assay (in words) [1]: no bactericidal activity; also recorded: appeared to be bacteriostatic
AUC(0-t) [2, 9]: 207 µg·h/mL
Cmax [2, 9]: 35.5 µg/mL
Tmax ([2]; 25 mg/kg, pyrazinamide levels in plasma, PZA alone, 25 mg/kg single oral dose): 1 h
half-life ([2]; 25 mg/kg, t1/2, pyrazinamide levels in plasma, PZA alone, 25 mg/kg single oral dose): 11.4 h
AUC(0-t) [2, 10]: 212 µg·h/mL
Cmax [2, 10]: 35.1 µg/mL
Tmax ([2]; pyrazinamide levels in plasma, PZA + C, pyrazinamide 25 mg/kg with celecoxib 400 mg oral): 1 h
half-life ([2]; t1/2, pyrazinamide levels in plasma, PZA + C, pyrazinamide 25 mg/kg with celecoxib 400 mg oral, includes 24 hour data where available): 11.2 h

Cc1ccc(-c2cc(C(F)(F)F)nn2-c2ccc(S(N)(=O)=O)cc2)cc1 [Celecoxib, celecoxib]
WBAcum(0–8) [1, 11]: 0.02 (0.01) ΔlogCFU
WBAmax [1, 11]: 0.12 (0.10) ΔlogCFU
WBAcum(0–8) ([1]; Celecoxib alone 400 mg single oral dose, RIF + PZA groups combined, n = 18, cumulative over 8 h post-dose): 0.03 ± 0.01 ΔlogCFU and 0.03 (0.01) ΔlogCFU
WBAmax ([1]; Celecoxib alone 400 mg single oral dose, RIF + PZA groups combined, n = 18, up to 8 h post-dose, negative = killing): 0.14 (0.10) ΔlogCFU
WBAcum(0–8) [1, 12]: 0.03 (0.01) ΔlogCFU
WBAmax [1, 12]: 0.17 (0.09) ΔlogCFU
bactericidal activity in the WBA assay (in words) [1]: no bactericidal activity; also recorded: no activity alone
effect of celecoxib on rifampicin or pyrazinamide drug levels (in words) ([2]; celecoxib 400 mg co-administered with rifampicin 10 mg/kg or pyrazinamide 25 mg/kg): no significant effect
Cmax and AUC(0–8hrs) of celecoxib when co-administered with the TB drugs (in words) ([2]; celecoxib 400 mg with rifampicin or pyrazinamide versus alone): non-significant trend towards lower
AUC(0–8) ([2]; celecoxib levels in plasma, C alone, celecoxib 400 mg single oral dose, geometric mean (min, max)): 5.97 (2.91, 10.25) h*mg/L
Cmax ([2]; 400 mg, celecoxib levels in plasma, C alone, celecoxib 400 mg single oral dose, geometric mean (min, max)): 1.14 µg/mL
Tmax ([2]; 400 mg, celecoxib levels in plasma, C alone, celecoxib 400 mg single oral dose): 2 h
half-life ([2]; 400 mg, t1/2, celecoxib levels in plasma, C alone, celecoxib 400 mg single oral dose): 4.48 h
AUC(0-t) [2, 13]: 4.23 µg·h/mL
AUC(0-t) [2, 14]: 4.53 µg·h/mL
Cmax [2, 13]: 0.76 µg/mL
Cmax [2, 14]: 0.89 µg/mL
Tmax ([2]; celecoxib levels in plasma, PZA + C, celecoxib 400 mg with pyrazinamide 25 mg/kg oral): 3 h
Tmax ([2]; celecoxib levels in plasma, RIF + C, celecoxib 400 mg with rifampicin 10 mg/kg oral): 2 h
half-life ([2]; t1/2, celecoxib levels in plasma, PZA + C, celecoxib 400 mg with pyrazinamide 25 mg/kg oral, includes 24 hour data where available): 7.28 h
half-life ([2]; t1/2, celecoxib levels in plasma, RIF + C, celecoxib 400 mg with rifampicin 10 mg/kg oral, includes 24 hour data where available): 6.65 h
